Assay results: US4208327A, “5-Aryl-1-(2-oxazolin-2-yl)-1H-1,4-benzodiazepines and related compounds” (G. D. Searle & Co., priority 1979, dated 1980)

Key:
[1] = Blockade of pentylenetetrazole induced clonic convulsions, intragastric; type: in vivo, mice; settings: for ED50: Mus musculus, po
Description: Exp. Ther., 108, 168 (1953)]. […] Both test compounds were administered intragastrically at specific time periods prior to the pentylenetetrazole challenge, and the ED50 for blockade of clonic convulsions was determined for each time period. Duration of activity is inferred from increases in the ED50 with time.

[2] = Blockade of pentylenetetrazole induced clonic convulsions, intravenous; type: in vivo, mice; settings: for ED50: Mus musculus, read-out: ED50 (95% confidence limits), anti-pentylenetetrazole effect
[3] = Comparison of durations of anti-conflict activity, drug crossover design, 16 hours after treatment; type: in vivo, squirrel monkey; settings: molar equivalent dose, 16 hours later; for bar pressing rate during the conflict segments, % of pre-compound control levels: 14 squirrel monkeys, crossover
[4] = Rotarod test (muscle relaxant); type: in vivo, mice; settings: intragastric; for ED50: Mus musculus, po, read-out: Rotarod ED50 (95% confidence limits)
Description: Using this procedure [after Dunham, N.W. and T.S. Miya, J. Amer. Pharm. […] The compounds were administered intragastrically to mice at varying time periods before being placed on the horizontal rotating (4.4 rpm) rod. Different groups of mice were assigned to each time period so that a subject was tested only once. A testing trial consisted of two opportunities to stay on the rod for one minute. ED50 's were calculated for each time period.

[5] = Potentiation of a sub-hypnotic dose of pentobarbital sodium (loss of righting reflex); type: in vivo, mice; settings: for ED50 (95% confidence limits), potentiation of pentobarbital sodium (loss of righting reflex): pentobarbital sodium 20 mg/kg i.p.
Source text: In this procedure an ED50 for loss of righting reflex was established.

[6] = Multiple VI-FR conflict procedure (anti-conflict, anti-anxiety); type: in vivo, squirrel monkey; settings: intragastric
[7] = 5 min, read-out: ED50 (95% confidence limits), anti-pentylenetetrazole effect, 5 min
[8] = 0.5 h, read-out: ED50 (95% confidence limits), anti-pentylenetetrazole effect, 30 min
[9] = read-out: ED50 (95% confidence limits), anti-pentylenetetrazole effect, 15 min
[10] = read-out: ED50 (95% confidence limits), anti-pentylenetetrazole effect, 1 hour
[11] = read-out: ED50 (95% confidence limits), anti-pentylenetetrazole effect, 2 hours
[12] = read-out: ED50 (95% confidence limits), anti-pentylenetetrazole effect, 4 hours
[13] = read-out: ED50 (95% confidence limits), anti-pentylenetetrazole effect, 8 hours
[14] = intragastric, .25 hours, 15 min

Clc1ccc2c(c1)C(c1ccccc1Cl)=NCCN2C1=NCCO1 [Compound I, 7-chloro-5-(o-chlorophenyl)-2,3-dihydro-1-(2-oxazolin-2-yl)-1H-1,4-benzodiazepine]
time to peak anti-pentylenetetrazole activity [1]: ≤ 15 min
change of ED50 in 30 minutes ([1]; 30 minutes): nearly doubled
increase of ED50 by 8 hours [1]: about 20 fold
ED50 [1, 7]: 3.8 mg/kg
ED50 [1, 8]: 1.9 mg/kg
ED50 [1, 9]: 1 mg/kg
ED50 [1, 10]: 1.8 mg/kg
ED50 [1, 11]: 6.2 mg/kg
ED50 [1, 12]: 7.1 mg/kg
ED50 [1, 13]: 19.6 mg/kg
duration of activity ([1]; compared with diazepam): much shorter duration of activity than Diazepam
ED50 ([2]; 1 min, intravenous, 1 min): 0.12 mg/kg
ED50 ([2]; 0.5 h, intravenous, 30 min): 0.23 mg/kg
ED50 ([2]; intravenous, 15 min): 0.18 mg/kg
ED50 ([2]; intravenous, 1 hour): 0.57 mg/kg
ED50 ([2]; intravenous, 2 hours): 1.44 mg/kg
ED50 ([2]; intravenous, 4 hours): 4.79 mg/kg
ED50 ([2]; intravenous, 8 hours): 17.8 mg/kg
time to peak activity ([2]; intravenous): one
anti-convulsant effectiveness ([2]; intravenous as well as intragastric route): effective as an anti-convulsant
increase of ED50 over the 8 hour period ([2]; intravenous, 8 hours): ~150 fold
duration of activity ([2]; intravenous, compared with diazepam): shorter duration of activity
duration of anti-anxiety (anti-conflict) action, in words [3]: shorter duration of action of anti-anxiety effect
bar pressing rate during the conflict segments, % of pre-compound control levels [3]: 123%
ED50 ([4]; 0.08 h, .08 hours): 8.5 mg/kg
ED50 ([4]; 0.5 h, .5 hours): 8.9 mg/kg
ED50 ([4]; 1.0 hours): 24 mg/kg
ED50 ([4]; 2.0 hours): 74.9 mg/kg
ED50 ([4]; .25 hours): 2.9 mg/kg
increase of rotarod ED50 from 15 minutes to 2 hours [4]: 25 fold
time to peak effect (rotarod) [4]: ≤ 15 min
duration of action (rotarod) ([4]; compared with diazepam): shorter duration of action
loss of potency over the two hour period (rotarod) ([4]; two hours): rapidly lost potency
duration of sedative-hypnotic activity ([5]; compared with a standard benzodiazepine (diazepam)): shorter duration of sedative-hypnotic activity
ED50 (95% confidence limits), potentiation of pentobarbital sodium (loss of righting reflex) ([5]; intragastric, 1.0 hours): 24.1(17.9-32.4) mg/kg
ED50 (95% confidence limits), potentiation of pentobarbital sodium (loss of righting reflex) ([5]; intragastric, 2.0 hours): 39.1(28.1-54.3) mg/kg
ED50 (95% confidence limits), potentiation of pentobarbital sodium (loss of righting reflex) [5, 14]: 5.6(3.8-8.4) mg/kg
increase of ED50 for potentiating pentobarbital sodium ([5]; intragastric, two hour period): about 7 fold
Conflict (FR) bar pressing rate, percentage of average pre-compound control rate ([6]; 1.26 mg/kg, N 5): 1519%
Non-Conflict (VI) bar pressing rate, percentage of average pre-compound control rate ([6]; 1.26 mg/kg, N 5): 46%
Conflict (FR) bar pressing rate, percentage of average pre-compound control rate ([6]; .07 mg/kg, N 5): 281%
Non-Conflict (VI) bar pressing rate, percentage of average pre-compound control rate ([6]; .07 mg/kg, N 5): 100%
dose response of bar pressing rates during the conflict segment ([6]; .07 to 1.26 mg/kg): clear dose responsive increase in bar pressing rates during the conflict segment
Conflict (FR) bar pressing rate, percentage of average pre-compound control rate ([6]; .126 mg/kg, N 6): 514%
Non-Conflict (VI) bar pressing rate, percentage of average pre-compound control rate ([6]; .126 mg/kg, N 6): 101%
Conflict (FR) bar pressing rate, percentage of average pre-compound control rate ([6]; .404 mg/kg, N 6): 1286%
Non-Conflict (VI) bar pressing rate, percentage of average pre-compound control rate ([6]; .404 mg/kg, N 6): 100%

CN1C(=O)CN=C(c2ccccc2)c2cc(Cl)ccc21 [Diazepam, diazepam, reference compound]
time to peak anti-pentylenetetrazole activity [1]: ≤ 15 min
increase of ED50 by 8 hours [1]: 2 fold
ED50 [1, 7]: 1.1 mg/kg
ED50 [1, 8]: 0.8 mg/kg
ED50 [1, 9]: 0.9 mg/kg
ED50 [1, 10]: 0.8 mg/kg
ED50 [1, 11]: 0.7 mg/kg
ED50 [1, 12]: 1.6 mg/kg
ED50 [1, 13]: 1.4 mg/kg
ED50 ([2]; 1 min, intravenous, 1 min): 0.07 mg/kg
ED50 ([2]; 0.5 h, intravenous, 30 min): 0.23 mg/kg
ED50 ([2]; intravenous, 15 min): 0.26 mg/kg
ED50 ([2]; intravenous, 1 hour): 0.48 mg/kg
ED50 ([2]; intravenous, 2 hours): 0.75 mg/kg
ED50 ([2]; intravenous, 4 hours): 1.16 mg/kg
ED50 ([2]; intravenous, 8 hours): 1.78 mg/kg
increase of ED50 over the 8 hour period ([2]; intravenous, 8 hours): 25 fold
duration of anti-anxiety (anti-conflict) action, in words [3]: still produced pronounced anti-conflict effects
bar pressing rate during the conflict segments, % of pre-compound control levels [3]: 1265%
ED50 (95% confidence limits), potentiation of pentobarbital sodium (loss of righting reflex) ([5]; intragastric, 1.0 hours): 3.8(2.7-5.4) mg/kg
ED50 (95% confidence limits), potentiation of pentobarbital sodium (loss of righting reflex) ([5]; intragastric, 2.0 hours): 3.6(2.4-5.4) mg/kg
ED50 (95% confidence limits), potentiation of pentobarbital sodium (loss of righting reflex) [5, 14]: 4.1(2.7-6.3) mg/kg
